Assay results: patent US20030148960A1, “Combination therapy of angiotensin converting enzyme inhibitor and side-effect-reduced amount of aldosterone antagonist for treatment of cardiovascular disease” (G.D. Searle & Co., priority 1995, published 2003)

How the values were obtained:
[1] = system: patients with symptomatic heart failure; assay: Human clinical trial: incidence and predictors of hyperkalemia (Cox regression); settings: type of ACE-I as predictor; step-wise Cox regression; patients on spironolactone or placebo
From the text: In this, analysis, the risk ratio can be thought of as the probability that the patient with the risk factor will develop hyperkalemia, relative to the probability that a patient without the risk factor will develop it.

refractory CHF = settings: 50 mg/day to 100 mg/day (average 73 mg/day) in combination with captopril; cited from earlier work
[2] = system: patients with symptomatic heart failure; assay: Human clinical trial: cardiac assessments and changes in patient therapy; type: in vivo
From the text: (§1) Cardiac assessments that included blood pressure, pulse, sodium retention score (general assessment of a patient's edematous state was derived from the summation of scores obtained from Table I), NYHA classification, and
All statistical methods were two-sided.

[3] = system: patients with symptomatic heart failure; assay: Human clinical trial: hospitalizations and deaths; type: in vivo
From the text: A breakdown of the hospitalizations is as follows:

[4] = system: patients with symptomatic heart failure; assay: Human clinical trial: incidence of adverse events, intent-to-treat cohort; type: in vivo
[5] = system: patients with symptomatic heart failure; assay: Human clinical trial: change in weight and vital signs; type: in vivo
From the text: Laboratory Measurements: The following information was obtained from each patient at baseline:
as §1
All statistical methods were two-sided.

[6] = system: patients afflicted with congestive heart failure; settings: 100 mg/day coadministered with an ACE inhibitor; cited from earlier work
[7] = system: patients with symptomatic heart failure; assay: Human clinical trial: clinical laboratory values (neurohormones, hematology, biochemistry); settings: for PRA (plasma renin activity), Week 12 mean change: Week 12 vs baseline, with stable ACE inhibitor and loop diuretic
[8] = system: myocardial fibrosis in animal models; settings: cited from earlier work

C[C@H](CS)C(=O)N1CCC[C@H]1C(=O)O [Captopril, captopril]
Risk ratio of hyperkalemia, captopril vs other ACE-I [1]: about one-third

CC(=O)S[C@@H]1CC2=CC(=O)CC[C@]2(C)[C@H]2CC[C@@]3(C)[C@@H](CC[C@@]34CCC(=O)O4)[C@H]12 [Spironolactone, 17-hydroxy-7α-mercapto-3-oxo-17α-pregn-4-ene-21-carboxylic acid γ-lactone acetate]
Control of refractory CHF (refractory CHF): effective to control refractory CHF without serious incidents of hyperkalemia
Sodium retention score, dose response ([2]; Day 9, p=0.019, not seen at later visits): higher doses showing more reduction in sodium retention score
Changes in loop diuretic therapy ([2]; Week 8, p=0.004, not observed at Week 12): more patients on the higher doses of spironolactone had decreases in the loop diuretic dose compared to the placebo group
NYHA Class ([2]; spironolactone groups vs placebo): the difference was not statistically significant
Hospitalizations, number of patients ([3]; 12.5 mg): 3 Patients
Hospitalizations, percent of patients ([3]; 12.5 mg): (7.3%)
Hospitalizations, number of patients ([3]; 25 mg): 3 Patients
Hospitalizations, percent of patients ([3]; 25 mg): (6.6%)
Hospitalizations, number of patients ([3]; 50 mg): 13 Patients
Hospitalizations, percent of patients ([3]; 50 mg): (27.6%)
Hospitalizations, number of patients ([3]; 75 mg): 6 Patients
Hospitalizations, percent of patients ([3]; 75 mg): (14.6%)
Deaths within 30 days after the study was completed ([3]; patients previously at the 50 mg dose): Three patients died within 30 days after the study was completed
Incidence of URT infection ([4]; 12.5 mg): 4.9 Percentage of Patients
Incidence of abdominal pain ([4]; 12.5 mg): 7.3 Percentage of Patients
Incidence of angina pectoris ([4]; 12.5 mg): 19.5 Percentage of Patients
Incidence of arthralgia ([4]; 12.5 mg): 4.9 Percentage of Patients
Incidence of coughing ([4]; 12.5 mg): 4.9 Percentage of Patients
Incidence of diarrhea ([4]; 12.5 mg): 4.9 Percentage of Patients
Incidence of dizziness ([4]; 12.5 mg): 12.2 Percentage of Patients
Incidence of dyspnea ([4]; 12.5 mg): 22.0 Percentage of Patients
Incidence of fatigue ([4]; 12.5 mg): 12.2 Percentage of Patients
Incidence of headache ([4]; 12.5 mg): 9.8 Percentage of Patients
Incidence of hyperkalemia (adverse event) ([4]; 12.5 mg): 2.4 Percentage of Patients
Incidence of nausea ([4]; 12.5 mg): 2.4 Percentage of Patients
Incidence of URT infection ([4]; 25 mg): 11.1 Percentage of Patients
Incidence of abdominal pain ([4]; 25 mg): 8.9 Percentage of Patients
Incidence of angina pectoris ([4]; 25 mg): 20.0 Percentage of Patients
Incidence of arthralgia ([4]; 25 mg): 4.4 Percentage of Patients
Incidence of coughing ([4]; 25 mg): 2.2 Percentage of Patients
Incidence of diarrhea ([4]; 25 mg): 22.2 Percentage of Patients
Incidence of dizziness ([4]; 25 mg): 13.3 Percentage of Patients
Incidence of dyspnea ([4]; 25 mg): 15.6 Percentage of Patients
Incidence of fatigue ([4]; 25 mg): 13.3 Percentage of Patients
Incidence of headache ([4]; 25 mg): 2.2 Percentage of Patients
Incidence of hyperkalemia (adverse event) ([4]; 25 mg): 8.9 Percentage of Patients
Incidence of nausea ([4]; 25 mg): 17.8 Percentage of Patients
Incidence of URT infection ([4]; 50 mg): 8.7 Percentage of Patients
Incidence of abdominal pain ([4]; 50 mg): 13.0 Percentage of Patients
Incidence of angina pectoris ([4]; 50 mg): 8.7 Percentage of Patients
Incidence of arthralgia ([4]; 50 mg): 8.7 Percentage of Patients
Incidence of coughing ([4]; 50 mg): 4.3 Percentage of Patients
Incidence of diarrhea ([4]; 50 mg): 8.7 Percentage of Patients
Incidence of dizziness ([4]; 50 mg): 13.0 Percentage of Patients
Incidence of dyspnea ([4]; 50 mg): 26.1 Percentage of Patients
Incidence of fatigue ([4]; 50 mg): 15.2 Percentage of Patients
Incidence of headache ([4]; 50 mg): 15.2 Percentage of Patients
Incidence of hyperkalemia (adverse event) ([4]; 50 mg): 15.2 Percentage of Patients
Incidence of nausea ([4]; 50 mg): 6.5 Percentage of Patients
Incidence of URT infection ([4]; 75 mg): 2.4 Percentage of Patients
Incidence of abdominal pain ([4]; 75 mg): 7.3 Percentage of Patients
Incidence of angina pectoris ([4]; 75 mg): 14.6 Percentage of Patients
Incidence of arthralgia ([4]; 75 mg): 4.9 Percentage of Patients
Incidence of coughing ([4]; 75 mg): 2.4 Percentage of Patients
Incidence of diarrhea ([4]; 75 mg): 14.6 Percentage of Patients
Incidence of dizziness ([4]; 75 mg): 17.1 Percentage of Patients
Incidence of dyspnea ([4]; 75 mg): 24.4 Percentage of Patients
Incidence of fatigue ([4]; 75 mg): 14.6 Percentage of Patients
Incidence of headache ([4]; 75 mg): 7.3 Percentage of Patients
Incidence of hyperkalemia (adverse event) ([4]; 75 mg): 19.5 Percentage of Patients
Incidence of nausea ([4]; 75 mg): 19.5 Percentage of Patients
Change in mean systolic and diastolic blood pressure (standing and supine) ([5]; 25 mg, 50 mg and 75 mg groups, all visits): decreases in mean systolic and diastolic blood pressure
Mean change in weight from baseline to Week 12 ([5]; 50 mg/d, Week 12, with stable ACE inhibitor and loop diuretic): 0.62 (2.05)
Change from baseline in body weight, dose response ([5]; 75 mg dose group, Day 9 and Week 4): more weight loss than other patients
Patients in whom treatment was highly effective [6]: 13 of 16
PRA (plasma renin activity), Week 12 mean change ([7]; 12.5 mg/d): 9.90 NgAngl/L/s
PRA (plasma renin activity), Week 12 mean change ([7]; 25 mg/d): 9.33 NgAngl/L/s
PRA (plasma renin activity), Week 12 mean change ([7]; 50 mg/d): 13.18 NgAngl/L/s
PRA (plasma renin activity), Week 12 mean change ([7]; 75 mg/d): 10.23 NgAngl/L/s
Change from baseline in PRA, dose response ([7]; Day 9, Week 4 and Week 12, P≦0.001): higher doses of spironolactone associated with greater increases in PRA
N-Terminal ANF change from baseline ([7]; all active treatments, all treatment visits): decreases from baseline
Change from baseline in serum potassium, dose response ([7]; all treatment period visits, p<0.001): Higher doses of spironolactone were associated with larger increases in potassium
Urinary aldosterone excretion, dose response ([7]; baseline to 12 week visit, p=0.002): Greater increases were seen at higher doses
Effect on myocardial fibrosis [8]: prevents myocardial fibrosis
